# PubChem BioAssay (NCI)
# Several values for one entry are separate records, joined by “and”; a condition that tells them apart may be missing. Equal entries are not always repeated.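 The compound was tested at five concentrations on cells cultured in 96-well plates, with a 48-hour exposure period. GI50: concentration for 50% inhibition of growth. TGI denotes the concentration required for complete inhibition of growth.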
# How the values were obtained:
# Assay in all cases: inhibition of tumour cell growth, NCI panel, 48 h
# HCC-2998 colon = system: HCC-2998 colon
# SK-MEL-28 melanoma = system: SK-MEL-28 melanoma
# T-47D breast = system: T-47D breast
# HT29 colon = system: HT29 colon
# TK-10 renal = system: TK-10 renal
# M14 melanoma = system: M14 melanoma
# SK-OV-3 ovarian = system: SK-OV-3 ovarian
# U251 CNS = system: U251 CNS
# HL-60(TB) leukemia = system: HL-60(TB) leukemia
# BT-549 breast = system: BT-549 breast
Compound,GI50 (HCC-2998 colon),TGI (HCC-2998 colon),GI50 (SK-MEL-28 melanoma),TGI (SK-MEL-28 melanoma),GI50 (T-47D breast),TGI (T-47D breast),GI50 (HT29 colon),TGI (HT29 colon),GI50 (TK-10 renal),TGI (TK-10 renal),GI50 (M14 melanoma),TGI (M14 melanoma),GI50 (SK-OV-3 ovarian),TGI (SK-OV-3 ovarian),GI50 (U251 CNS),TGI (U251 CNS),GI50 (HL-60(TB) leukemia),TGI (HL-60(TB) leukemia),GI50 (BT-549 breast),TGI (BT-549 breast)
COc1ccc(C(=O)c2cc(OC)c(OC)c(OC)c2)cc1/C=C/C(=O)c1ccc(O)cc1,1.66 µM,3.16 µM,4.75 µM,17.5 µM,19 µM,> 100 µM,5.35 µM,> 100 µM,11.8 µM,28.5 µM,1.98 µM,5.86 µM,16.3 µM,> 100 µM,4.58 µM,18.3 µM,0.693 µM,> 100 µM,2.02 µM,5.32 µM
Clc1ccc(Nc2ccnc(NCCNc3ccnc4cc(Cl)ccc34)n2)cc1,1.22 µM,2.59 µM,1.58 µM,3.03 µM,1.15 µM,3.05 µM,0.615 µM,2.07 µM,1.76 µM,3.17 µM,1.4 µM,3.09 µM,1.44 µM,2.76 µM,1.33 µM,2.67 µM,2.09 µM,4.92 µM,1.5 µM,3.2 µM
OCc1ccc(N(Cc2ccc(F)cc2)C2CCC2)cc1Cl,5.42 µM,22.7 µM,13.5 µM,26.4 µM,0.141 µM,0.815 µM,3.89 µM,15.3 µM,0.0551 µM,0.278 µM,15.8 µM,32 µM,11 µM,23 µM,1.02 µM,16.2 µM,5.7 µM,25.5 µM,17.7 µM,32.8 µM
COc1ccc(-c2nc3sccn3c2/C=C/C(=O)c2cc(OC)c(OC)c(OC)c2)cc1OC,2.72 µM,4.79 µM,–,–,1.72 µM,5.83 µM,3.48 µM,9.88 µM,4.8 µM,> 100 µM,3.1 µM,9.3 µM,2.9 µM,8.07 µM,–,–,1.84 µM,4.98 µM,2.43 µM,7.95 µM
COc1ccc2c(CN3CCC(CO)CC3)cc3cc4c(cc3c2c1)OCO4,0.194 µM,1.41 µM,0.326 µM,1.15 µM,0.418 µM,9.17 µM,0.134 µM,2.6 µM,0.407 µM,8.65 µM,0.296 µM,1.26 µM,0.326 µM,3.83 µM,0.265 µM,8.82 µM,0.286 µM,1.72 µM,0.6 µM,3.87 µM
O=C(CSc1nc2ccc([N+](=O)[O-])cc2[nH]1)Nc1cccc(C(F)(F)F)c1,2.8 µM,12.2 µM,2.34 µM,13.5 µM,1.14 µM,11.8 µM,2.78 µM,11.3 µM,3.14 µM,10.9 µM,3.17 µM,14.9 µM,1.66 µM,5.86 µM,2.28 µM,12.2 µM,2.57 µM,8.33 µM,2.63 µM,11.6 µM
C=C1C(=O)O[C@H]2[C@H]1CC/C(COC(=O)/C=C/c1cccnc1)=C\CC[C@@]1(C)O[C@@H]21,5.02 µM,17.1 µM,1.26 µM,2.61 µM,1.88 µM,5.12 µM,2.23 µM,6.03 µM,2.01 µM,4.06 µM,1.38 µM,3.23 µM,16.4 µM,53 µM,5.74 µM,18.3 µM,0.741 µM,3.7 µM,1.18 µM,2.68 µM
COc1ccc(/C=C/C(=O)/C=C(/C=C/c2ccc(OC)c(OC)c2)OB(F)F)cc1OC,2.02 µM,4.17 µM,1.18 µM,3.1 µM,0.805 µM,> 100 µM,1.03 µM,4.95 µM,1.25 µM,9.48 µM,0.519 µM,3.55 µM,2.98 µM,12.1 µM,0.807 µM,2.31 µM,0.495 µM,3.64 µM,1.13 µM,2.68 µM
O=C(Nc1cccc(NS(=O)(=O)c2ccc(F)cc2)c1)c1ccc(-c2ccccc2)cc1,3.48 µM,24.4 µM,3.54 µM,16.9 µM,2.28 µM,7.88 µM,4.85 µM,18.6 µM,3.77 µM,36.5 µM,3.63 µM,17.1 µM,4.78 µM,38.5 µM,3.92 µM,19.2 µM,3.37 µM,12.9 µM,2.99 µM,8.27 µM
O=C1NC(=O)[C@@H](c2cn3c4c(cccc24)CCC3)[C@@H]1c1c[nH]c2ccccc12,0.59 µM and 0.49 µM,> 10 µM and 5.82 µM,1.04 µM and 0.66 µM,> 10 µM and 19.6 µM,0.456 µM and 0.625 µM,> 10 µM and 32.4 µM,0.312 µM and 0.321 µM,> 4.4 µM and 1.57 µM,0.57 µM and 4.7 µM,> 10 µM and 35.5 µM,0.31 µM and 0.372 µM,> 10 µM and 10.8 µM,0.48 µM and 0.372 µM,> 10 µM and 12.2 µM,0.391 µM and 0.451 µM,> 10 µM and 12.9 µM,0.348 µM and 0.35 µM,> 4.06 µM and 6.88 µM,0.522 µM and 1.1 µM,> 10 µM and 17.7 µM
COC(=O)c1ccc(-c2nc3cc(F)c(F)cc3nc2C#N)cc1,8.41 µM,16.1 µM,9.58 µM,33.9 µM,12.8 µM,32 µM,11.1 µM,35.6 µM,17.4 µM,42.2 µM,8.28 µM,18.9 µM,9.77 µM,17.2 µM,10.1 µM,21.4 µM,3.23 µM,9.51 µM,8.24 µM,16.6 µM
Cc1cc(Cl)ccc1NC(=O)/C(Cc1nc2ccc(C(=O)c3ccccc3)cc2[nH]c1=O)=N/NC(=O)c1ccncc1,–,> 100 µM,–,> 100 µM,–,> 100 µM,–,> 100 µM,–,> 100 µM,–,> 100 µM,–,> 100 µM,–,> 100 µM,–,> 100 µM,–,> 100 µM
